The subject of assay [1] is Human T24 bladder carcinoma cells. Kind of assay: Inhibition of the growth of human T24 bladder carcinoma cells. Particulars: 120 h, 5 days incubation, methylene blue staining, OD 665 nm. The assay is classed as cell-based. On the procedure: In this assay, the inhibitory action of compounds of formula I on the growth of human T24 bladder carcinoma cells is determined. The IC50 values obtained for the compounds of formula I are from c. 1 to 10 μmol/liter.
Human T24 bladder carcinoma cells are incubated in "Eagle's minimal essential medium", to which 5% (v/v) foetal calf serum has been added, in a humidified incubator at 37° C. and 5 percent by volume CO2 in air. The carcinoma cells (1000-1500) are inoculated in 96-well microtitre plates and incubated overnight under the stated conditions. The test compound is added in serial dilutions on day 1. The plates are incubated for 5 days under the stated conditions. During this time the control cultures undergo at least 4 cell divisions. After incubation, the cells are fixed with a 3.3% (g/v) aqueous solution of glutaraldehyde, washed with water and stained with a 0.05% (weight/volume) aqueous solution of methylene blue. After washing, the stain is eluted with 3% (g/v) aqueous hydrochloric acid. Afterwards, the optical density (OD) per well, which is directly proportional to the number of cells, is measured with a photometer (Titertek multiskan) at 665 nm. The IC50 values are computed by a computer system, using the formula [formula] The IC50 values are defined as that active compound concentration at which the number of cells per well at the end of the incubation period is only 50% of the number of cells in the control cultures. The following IC50 values are obtained in this assay for the compounds of formula I: […]

In assay [2] the target is Protein kinase C from pig brain. As to the kind of experiment: Determination of the inhibitory action on protein kinase C. Particulars: method of Fabbro et al., read-out: IC50, inhibition of protein kinase C. The assay is classed as biochemical. How it is done:
Protein kinase C from pig brain is used to determine the inhibitory action on protein kinase C. The inhibitory action of the compounds of formula I on protein kinase C is determined by the method of D. Fabbro et al, as described in Example 2. […] 0.1 to 30 μmol/liter.
Protein kinase C from pig brain purified in accordance with the procedure described by T. Uchida and C. R. Filbum in J. Biol. Chem. 259, 12311-4 (1984) is used to determine the inhibitory action on protein kinase C. The inhibitory action of the compounds of formula I on protein kinase C is determined by the method of D. Fabro et al., Arch. Biochem. Biophys. 239, 102-111 (1985). The following IC50 values are obtained in this assay for the compounds of formula I: […]

For assay [3], the system named is human T24 bladder carcinoma. Kind of assay: Antitumour activity in mice (T24 bladder carcinoma transplant). The assay is classed as in vivo, female Balb/c nude mice. Particulars: once daily for 15 days, measured 24 hours after last administration. On the procedure: In the assay described in Example 3, the compounds of formula I, when administered perorally or intraperitoneally, reduce tumour volume to about 35-70% of tumour volume in control animals treated with placebo.
On day 0 a c. 25 mg piece of human T24 bladder carcinoma is transplanted subcutaneously using Trokar under operable "forene" narcosis on female Balb/c nude mice (Balb/c(Balb/c nu/nu, Bomholdgaard, Denmark; six mice per group). On day 6 after the tumour transplantation the average tumour volume is 120-140 mm^3 and treatment is commenced. The treatment consists in administering perorally or intraperitoneally once daily over 15 successive days, i.e. altogether 15 times, 25 ml/kg of the following formulation. This formulation is prepared as follows: 16 mg of a compound of formula I are dissolved in 0.4 ml of dimethyl sulfoxide (100% ). Then 0.05 ml of Tween 80 is added to this solution and the batch is mixed. Then 7.6 ml of a 0.9% aqueous solution of sodium chloride are added and the batch is thoroughly mixed. This formulation is prepared fresh daily. The control animals receive a placebo. The placebo is the same formulation without compound of formula I.
24 hours after the last administration, the tumour volume is measured and the ratio [%] of the tumour volume T/C is determined in the treated animals (T) and the control animals treated with placebo (C).

For the compound `c1cncc(-c2ccnc(Nc3cccc(-n4ccnc4)c3)n2)c1` [compound A, N-(3-1H-imidazol-1-ylphenyl)-4-(3-pyridyl)-2-pyrimidinamine], the IC50 (as a rule, the point on the concentration scale where inhibition reaches its midpoint) was found to be 2.5 µM in assay [1] and 8.8 µM in assay [2].
In the case of `FC(F)(F)c1cccc(Nc2nccc(-c3cccnc3)n2)c1` [compound B, N-(3-trifluoromethylphenyl)-4-(3-pyridyl)-2-pyrimidinamine], the results for the IC50 in assay [1] and in assay [2] were 7.4 µM and 2.5 µM, respectively. Further, the “ratio T/C of tumour volume” value in assay [3] (intraperitoneal, 25 mg) turned out to be 54%; in assay [3] (intraperitoneal, 50 mg) it was 46%; in assay [3] (peroral, 25 mg) it was 68%; in assay [3] (peroral, 50 mg), 53%.
Consider `Clc1cccc(Nc2nccc(-c3cccnc3)n2)c1` [compound C, N-(3-chlorophenyl)-4-(3-pyridyl)-2-pyrimidinamine], for which the results for the IC50 in assay [1] and in assay [2] were 5.2 µM and 6.3 µM, respectively.
For `Nc1cccc(Nc2nccc(-c3cccnc3)n2)c1` [compound D, N-(3-aminophenyl)-4-(3-pyridyl)-2-pyrimidinamine], the IC50 came out at 7.2 µM in assay [1] and 28 µM in assay [2].
Regarding `COC(=O)c1cccc(Nc2nccc(-c3cccnc3)n2)c1` [compound E, N-(3-methoxycarbonylphenyl)-4-(3-pyridyl)-2-pyrimidinamine], the IC50 in assay [2] stood at 26 µM.
As for `NCCCNC(=O)c1cccc(Nc2nccc(-c3cccnc3)n2)c1` [compound F, N-(3-[3-aminopropylaminocarbonyl]phenyl)-4-(3-pyridyl)-2-pyrimidinamine], the IC50 in assay [2] was 28 µM.

For the origin of these results see patent US5516775A, “Further use of pyrimidine derivatives” (Ciba-Geigy Corporation, priority 1992, dated 1996).
